Experiments:
H^+/K^+-ATPase = target: T1, H^+/K^+-ATPase (Sus scrofa, UniProt P19156); test: H+/K+-ATPase enzyme activity inhibition (malachite green, microsomes of porcine gastric mucosa); type: biochemical; settings: pH 6.5, 10 mmol/L KCl, 37° C. 30 min
T1 construct: Microsomes of porcine gastric mucosal (rich in H^+/K^+-ATPase) obtained by sucrose gradient centrifugation; from tissue; host or cells: porcine gastric mucosa microsomes (self-manufactured, sucrose/ficoll gradient centrifugation)
Method: The following in-vitro screening test was used for determining the inhibition effect of the compounds of the present invention on enzyme activity of H^+/K^+-ATPase.
1. microsomes of porcine gastric mucosa (rich in H^+/K^+-ATPase) (self-manufactured)
1. The compounds were prepared into appropriate concentrations of 10000, 1000, 100, 10, 1 and 0.1 nM with 100% DMSO;
2. Buffer solution 1: 50 mmol/L of HEPES-Tris, 5 mmol/L of magnesium chloride, pH of 6.5;
3. Buffer solution 2: 50 mmol/L of HEPES-Tris, 5 mmol/L of magnesium chloride, pH of 6.5, 10 mmol/L of potassium chloride, pH=6.5;
4. ATP: ATP was diluted with the buffer solution 1 to 2 mM;
5. Malachite green solution: 0.12% of malachite green was dissolved in 2.5 moles of a mixture of sulfuric acid, 7.5% ammonium molybdate and 11% Tween 20, the three components were mixed according to a ratio of 100:25:2 during the use.
6. Microsomes of porcine gastric mucosal (rich in H^+/K^+-ATPase) obtained by sucrose gradient centrifugation: a porcine stomach was washed with running water, and immersed into 3 mol/L of concentrated brine for 1-2 min, and then wiped dry; the gastric mucosas were separated, minced, then suspended in a solution of 0.25 mol/L of sucrose, 1 mmol/L of EDTA, and 10 mmol/L of Tris-HCl; homogenization treatment was performed (the ratio was 100 g:330 mL, and 300 mL was further added after the completion of full homogenization), and the resulting homogenate was centrifugalized at 20000G for 30 min to remove the precipitate; the supernatant fluid was taken and centrifugalized at 100000G for 90 min; the precipitate was taken and suspended in 0.25 mol/L of sucrose solution, 0.25 mol/L of sucrose, 7.5% of ficoll were added at the bottom and centrifugalized at 100000G for 5 h. The substances between two liquid surface layers were collected, and then washed with 0.25 mol/L of sucrose solution while being shaken, and the resulting microsomal enzymes were kept at −80° C. for preservation and later use.
10 μL of microsomes of gastric mucosa (H^+/K^+-ATPase) were added to 79 μL of the buffer solution 2, followed by addition of 1 μL of the compound solutions with various concentrations, and then 10 μL of 2 mM ATP were added to start the reaction. It was reacted at 37° C. for 30 min. 30 μL of malachite green solution was added to terminate the reaction, and the reaction solution was kept at room temperature for 20 min, and then an OD value was read at 620 nm on a Victor3 microplate reader, and the inhibition rates of the compounds at various concentrations against H^+/K^+-ATPase were calculated.
Simultaneously, the reaction without addition of potassium chloride was taken as a background, which was subtracted when enzyme activity was calculated.
IC50 values can be calculated from the inhibition rates of the test compounds at various concentrations.

[1] = test system: gastric acid secretion of rats with pyloric ligation induced ulcer; test: Inhibition of gastric acid secretion of rats with pyloric ligation induced ulcer, histamine-stimulated, 1 h after administration (Test Example 2); type: in vivo, rat; settings: SD male rats, 2 mg/kg i.g., acid output within 3 h of histamine
Method: A rat gastric ulcer model, in which rat gastric acid secretion was promoted by pyloric ligation and histamine hydrochloride, was established in the following experiment, for evaluating the effect of the test compounds on inhibition of gastric acid secretion.
(§1) Sixteen 7-week-old Sprague-Dawley (SD) male rats with a weight of about 250 g were purchased form Sippr-BK (batch number: 2008001621913). The rats were fed by 4 rats/cage, 12/12 h light/dark cyclic regulation was performed, the temperature was constant at 23±1° C., the humidity was 50-60%, and the rats took food and water freely.
The compound of Example 1, which was prepared into a solution/suspension with 0.5% of sodium carboxymethylcellulose (CMC-Na).
(§2) The rats were fasted for about 4 h. 2 mg/kg of the compound of Example 1 or 0.5% of CMC-Na were administrated intragastrically (i. g.) to the rats, and then 1.2 g/kg of urethane was injected intraperitoneally within 1 h. […] After centrifugalizing at 4000 rpm for 5 min, the supernatant fluid was sucked up, and the volume of each sample was measured accurately. […]
(§3) Gastric acid titration: the mean value (mean±S.D.) was calculated in each group by Excel software, t test was performed on the total acid value of gastric acid from treatment groups and model group subjects/animals at each time point after drug administration to judge whether a significant difference existed or not. […]

[2] = test system: gastric acid secretion of rats with pyloric ligation induced ulcer; test: Inhibition of gastric acid secretion of rats with pyloric ligation induced ulcer, histamine-stimulated, 24 h after administration (Test Example 3); type: in vivo, rat; settings: SD male rats, acid output within 3 h of histamine
Method: A rat gastric ulcer model, in which rat gastric acid secretion was promoted by pyloric ligation and histamine hydrochloride, was established in the following experiment, for evaluating the effect of the test compounds on inhibition of the gastric acid secretion.
as §1, with “Twenty-four (24)” for “Sixteen”, “SD” for “Sprague-Dawley (SD)”
The compound of Example 1 was prepared into a solution/suspension with 0.5% of CMC-Na.
as §2, with “about 24 h.” for “about”, “4 mg/kg and 8” for “4 h. 2”, “(i. g)” for “(i. g.)”, “within 24” for “within 1”, “for 10” for “for 5”
as §3

T1 sequence (P19156 2-1034 limits assumed): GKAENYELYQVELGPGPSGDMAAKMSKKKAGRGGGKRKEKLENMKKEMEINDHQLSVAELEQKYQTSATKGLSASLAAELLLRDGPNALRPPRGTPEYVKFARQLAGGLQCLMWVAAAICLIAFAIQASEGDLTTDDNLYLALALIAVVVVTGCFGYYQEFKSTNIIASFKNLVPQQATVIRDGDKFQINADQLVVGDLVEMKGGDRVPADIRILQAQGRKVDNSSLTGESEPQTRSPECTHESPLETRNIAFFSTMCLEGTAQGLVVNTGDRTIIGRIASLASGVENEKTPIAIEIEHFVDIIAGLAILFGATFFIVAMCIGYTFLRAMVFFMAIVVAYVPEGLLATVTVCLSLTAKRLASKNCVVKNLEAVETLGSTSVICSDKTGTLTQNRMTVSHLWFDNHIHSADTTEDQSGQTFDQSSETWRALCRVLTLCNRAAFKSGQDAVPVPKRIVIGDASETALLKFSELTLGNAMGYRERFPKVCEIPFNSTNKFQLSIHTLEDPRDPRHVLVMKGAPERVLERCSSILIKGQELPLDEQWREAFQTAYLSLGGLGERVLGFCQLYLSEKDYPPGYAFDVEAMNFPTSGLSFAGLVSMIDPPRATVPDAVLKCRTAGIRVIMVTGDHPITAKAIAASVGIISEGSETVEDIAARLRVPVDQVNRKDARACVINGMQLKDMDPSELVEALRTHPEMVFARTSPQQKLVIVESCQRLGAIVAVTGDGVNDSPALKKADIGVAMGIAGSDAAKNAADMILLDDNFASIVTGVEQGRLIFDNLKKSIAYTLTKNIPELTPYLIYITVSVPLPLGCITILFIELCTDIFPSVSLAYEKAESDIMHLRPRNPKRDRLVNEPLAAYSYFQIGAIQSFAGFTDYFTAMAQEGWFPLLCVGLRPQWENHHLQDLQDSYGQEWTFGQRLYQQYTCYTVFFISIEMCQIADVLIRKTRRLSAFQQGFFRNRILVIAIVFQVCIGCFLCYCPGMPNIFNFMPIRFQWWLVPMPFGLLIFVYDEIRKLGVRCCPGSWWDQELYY
T1 sequence (P18434 whole entry partner): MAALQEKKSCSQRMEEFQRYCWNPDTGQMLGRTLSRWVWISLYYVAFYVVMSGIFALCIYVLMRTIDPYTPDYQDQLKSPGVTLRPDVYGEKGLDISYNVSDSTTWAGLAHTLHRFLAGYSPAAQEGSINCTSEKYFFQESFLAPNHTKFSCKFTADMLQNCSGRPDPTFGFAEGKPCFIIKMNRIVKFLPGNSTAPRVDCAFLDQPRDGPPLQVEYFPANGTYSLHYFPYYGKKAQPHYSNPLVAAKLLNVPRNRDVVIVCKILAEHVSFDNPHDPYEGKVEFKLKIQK

Row | Compound | IC50 (H^+/K^+-ATPase) [nM] | acid inhibition rate at 1 h [1] [%] | acid inhibition rate at 24 h ([2]; 4 mg/kg i.g.) [%] | acid inhibition rate at 24 h ([2]; 8 mg/kg i.g.) [%]
1 | CNCc1cc(-c2ccccc2F)n(S(=O)(=O)c2cccc(OCC(=O)NC)c2)c1 [Example 1, 2-(3-((2-(2-fluorophenyl)-4-((methylamino)methyl)-1H-pyrrol-1-yl)sulfonyl)phenoxy)-N-methylacetamide] | 21 | 89.3 | 89.6 | 99.4
2 | CNCc1cc(-c2ccccc2F)n(S(=O)(=O)c2ccc(OCC(=O)NC)cc2)c1 [Example 4, 2-(4-((2-(2-fluorophenyl)-4-((methylamino)methyl)-1H-pyrrol-1-yl)sulfonyl)phenoxy)-N-methylacetamide] | 63 |  |  | 
3 | CNCc1cc(-c2ccccc2F)n(S(=O)(=O)c2cccc(OCC3(C(=O)NC)CC3)c2)c1 [Example 5, 1-((3-((2-(2-fluorophenyl)-4-((methylamino)methyl)-1H-pyrrol-1-yl)sulfonyl)phenoxy)methyl)-N-methylcyclopropylcarboxamide] | 81 |  |  | 
4 | CNCc1cc(-c2ccccc2F)n(S(=O)(=O)c2ccc(OCC3(C(=O)NC)CC3)cc2)c1 [Example 6, 1-((4-((2-(2-fluorophenyl)-4-((methylamino)methyl)-1H-pyrrol-1-yl)sulfonyl)phenoxy)methyl)-N-methylcyclopropylcarboxamide] | 106 |  |  | 
5 | CNCc1cc(C2=CCCCC2)n(S(=O)(=O)c2cccc(OCC(=O)NC3CC3)c2)c1 [Example 7, 2-(3-((2-(cyclohex-1-en-1-yl)-4-((methylamino)methyl)-1H-pyrrol-1-yl)sulfonyl)phenoxy)-N-cyclopropylacetamide] | 95 |  |  | 

More lines, main results first:

Row | IC50 (H^+/K^+-ATPase) [nM] | Compound | acid inhibition rate at 1 h [1] [%] | acid inhibition rate at 24 h ([2]; 4 mg/kg i.g.) [%] | acid inhibition rate at 24 h ([2]; 8 mg/kg i.g.) [%]
6 | 49 | CNCc1cc(-c2ccccc2F)n(S(=O)(=O)c2cccc(OCC(=O)NCCO)c2)c1 [Example 10, 2-(3-((2-(2-fluorophenyl)-4-((methylamino)methyl)-1H-pyrrol-1-yl)sulfonyl)phenoxy)-N-(2-hydroxyethyl)acetamide] |  |  | 
7 | 61 | CNCc1cc(-c2ccccc2F)n(S(=O)(=O)c2cccc(OCC(=O)NCCCO)c2)c1 [Example 11] |  |  | 
